System: phosphorylation of c-Jun at Ser63 in HEKa cells
Assay: UVB-induced c-Jun Ser63 phosphorylation in HEKa keratinocytes (Western immunoblotting)
Assay type: cell-based, Human
Conditions: HEKa cells from four donors; 50 mJ/cm^2 UVB; Compound 1 added 1 hour before and kept 30 minutes after irradiation; nuclear extract, Western blot (FIGS. 1-5)
Experimental: Adult Normal Human […] Keratinocytes (HEKa) were obtained from ScienCell. Cells were plated in 10 cm dishes and incubated to allow attachment and then serum starved overnight. Compound 1 was added 1 hour before the cells were irradiated with 50 mJ/cm^2 UVB. Cells were incubated with Compound 1 for an additional 30 minutes after UVB irradiation. Cells were then lysed and nuclear and cytoplasmic proteins were isolated using the Nuclear Extraction kit by Active Motif. Protein was run on 10% tris glycine gels and transferred to nitrocellulose membranes. Blots were blocked for 1 hour. Total and phosphorylated c-Jun primary antibodies were added and incubated overnight. Licor secondary antibodies were added and blots were read on the Li-Cor Odyssey. 1-5. There was increased phosphorylation of c-Jun at Ser63 with 50 mJ/cm^2 UVB radiation, and inhibition by Compound 1 (FIGS. 1-5). There was also good separation of the nuclear and cytoplasmic proteins (c-Jun is only in the nucleus) (FIGS. 1-4).

## C[C@@H]1CC[C@@H](Nc2nc(NC(C)(C)C)ncc2C(N)=O)C[C@H]1O [Compound 1, 2-(tert-butylamino)-4-((1R,3R,4R)-3-hydroxy-4-methylcyclohexylamino)-pyrimidine-5-carboxamide]
  inhibition of phosphorylation of c-Jun at Ser63 induced by UVB radiation: inhibits c-Jun phosphorylation at Ser63 in a dose dependent manor
